Reference: patent US7232835B2, “3,6-Disubstituted azabicyclo derivatives as muscarinic receptor antagonists” (Ranbaxy Laboratories Limited, priority 2002, dated 2007)
Where two headings read alike, the source gives them in different places.

Columns and labels:
M2 muscarinic receptor = molecular target: T1, M2 muscarinic receptor (Rattus norvegicus, UniProt P10980); test: [3H]-N-methylscopolamine radioligand binding assay, rat heart membranes
T1 construct: Submandibular glands and heart were isolated and placed in ice cold homogenising buffer; from tissue; host or cells: rat heart membrane homogenate
T1 sequence (P10980 1-466): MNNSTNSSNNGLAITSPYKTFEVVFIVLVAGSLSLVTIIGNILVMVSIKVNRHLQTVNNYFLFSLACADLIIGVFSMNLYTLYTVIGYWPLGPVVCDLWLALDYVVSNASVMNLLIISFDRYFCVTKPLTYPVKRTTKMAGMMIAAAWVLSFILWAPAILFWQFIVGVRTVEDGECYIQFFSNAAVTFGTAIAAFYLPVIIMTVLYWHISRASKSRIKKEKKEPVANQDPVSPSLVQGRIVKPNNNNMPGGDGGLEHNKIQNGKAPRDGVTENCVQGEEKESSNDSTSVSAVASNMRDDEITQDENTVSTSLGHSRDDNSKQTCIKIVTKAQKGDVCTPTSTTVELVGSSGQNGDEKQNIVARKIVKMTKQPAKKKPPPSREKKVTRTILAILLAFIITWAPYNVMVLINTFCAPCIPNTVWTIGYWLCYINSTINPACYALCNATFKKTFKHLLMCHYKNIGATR

M3 muscarinic receptor = molecular target: T2, M3 muscarinic receptor (Rattus norvegicus, UniProt P08483); test: [3H]-N-methylscopolamine radioligand binding assay, rat submandibular gland membranes; set-up: Receptor Binding Assay Selectivity: reference not given here
T2 construct: Submandibular glands and heart were isolated and placed in ice cold homogenising buffer; from tissue; host or cells: rat submandibular gland membrane homogenate
T2 sequence (P08483 whole entry): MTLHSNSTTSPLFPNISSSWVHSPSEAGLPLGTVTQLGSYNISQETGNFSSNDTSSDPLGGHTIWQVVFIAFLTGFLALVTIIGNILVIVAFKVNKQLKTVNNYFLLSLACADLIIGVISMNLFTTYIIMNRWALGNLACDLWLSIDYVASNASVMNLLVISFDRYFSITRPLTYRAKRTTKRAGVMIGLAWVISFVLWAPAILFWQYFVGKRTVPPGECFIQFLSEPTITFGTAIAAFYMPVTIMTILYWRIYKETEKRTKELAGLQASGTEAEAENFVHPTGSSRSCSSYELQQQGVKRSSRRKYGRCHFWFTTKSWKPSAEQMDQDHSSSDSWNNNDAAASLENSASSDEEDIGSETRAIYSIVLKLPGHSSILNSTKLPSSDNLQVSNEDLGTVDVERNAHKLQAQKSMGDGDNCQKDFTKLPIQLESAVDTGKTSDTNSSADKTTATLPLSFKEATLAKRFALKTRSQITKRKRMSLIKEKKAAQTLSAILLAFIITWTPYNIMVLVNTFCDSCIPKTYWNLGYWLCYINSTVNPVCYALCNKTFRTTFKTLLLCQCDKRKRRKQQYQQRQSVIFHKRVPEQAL

isolated rat bladder = test: tissue or blood; format: cell-based; details: rat bladder strips, antagonism of carbachol contraction
[1] = Table III, rat heart, [3H]NMS, read-out: M2 Ki (nm)
[2] = Table III, rat submandibular gland, [3H]NMS, read-out: M3 Ki (nm)
[3] = Table III, read-out: Rat Bladder pKB (converted)
[4] = Table II, rat heart, [3H]NMS, read-out: Receptor Binding Assay Ki (nM) M2
[5] = Table II, rat submandibular gland, [3H]NMS, read-out: Receptor Binding Assay Ki (nM) M 3
[6] = Table II, read-out: Functional Assay KB
[7] = Table III, rat submandibular gland, [3H]NMS, read-out: M3 Pki (converted)
[8] = Table III, rat heart, [3H]NMS, read-out: M2 pKi (converted)
[9] = Receptor Binding Assay Ki (nM) M 3

Structure (SMILES)	Ki (M2 muscarinic receptor; [1]) [nM]	Ki (M3 muscarinic receptor; [2]) [nM]	Kb (isolated rat bladder; [3]) [nM]	Ki (M2 muscarinic receptor; [4]) [nM]	Kb (isolated rat bladder; [6]) [nM]	Ki (M3 muscarinic receptor; [7]) [nM]	further results
O=C(N[C@H]1[C@@H]2CN(C3CC3)C[C@@H]21)C(O)(c1ccccc1)C1CCCCC1 (stereo partly drawn) [Compound No. 38, (1α,5α,6α)-6-N-(3-azabicyclo[3.1.0]hexyl-3-cyclopropyl)-2-cyclohexyl-2-hydroxy-2-phenyl acetamide]	> 1000	1560	288				
CC(C)=CCCN1C[C@@H]2[C@H](C1)[C@H]2NC(=O)C(O)(c1ccccc1)C1CCCCC1 (stereo partly drawn) [Compound No. 41, (1α,5α,6α)-6-N-(3-azabicyclo[3.1.0]hexyl-3-(4-methyl-3-pentenyl))-2-cyclohexyl-2-hydroxy-2-phenyl acetamide]	2940	47	20.4	2940	32.4		Ki (M3 muscarinic receptor; [5]): 47 nM; Receptor Binding Assay Selectivity (M3 muscarinic receptor; Table II, ratio M2 Ki / M3 Ki): 62.64
O=C(N[C@H]1[C@@H]2CN(Cc3ccc4c(c3)OCO4)C[C@@H]21)C(O)(c1ccccc1)C1CCCCC1 (stereo partly drawn) [Compound No. 42, (1α,5α,6α)-6-N-(3-azabicyclo[3.1.0]hexyl-3-(3,4-methylenedioxybenzyl))-2-cyclohexyl-2-hydroxy-2-phenyl acetamide]	2200	55	75.9			56.2	
Cc1ccc(S(=O)(=O)NC(=O)N2C[C@@H]3[C@H](C2)[C@H]3NC(=O)C(O)(c2ccccc2)C2CCCCC2)cc1 (stereo partly drawn) [Compound No. 49, (1α,5α,6α)-6-N-(3-azabicyclo[3.1.0]hexyl-3-(4-methylphenyl-1-sulphonamide)urea)-2-cyclohexyl-2-hydroxy-2-phenyl acetamide]	> 1000	1000	631				
Cc1ccc(C(O)(C(=O)NC2C3CN(Cc4ccccc4)CC32)C2CCCCC2)cc1 (stereo not drawn) [Compound No. 50, (1α,5α,6α)-6-N-(3-azabicyclo[3.1.0]hexyl-3-benzyl)-2-cyclohexyl-2-hydroxy-2-(4-methylphenyl)acetamide]	> 1000	1200	138				
O=C(N[C@H]1[C@@H]2CN(Cc3ccccc3)C[C@@H]21)C(O)(c1ccc(Oc2ccccc2)cc1)C1CCCCC1 (stereo partly drawn) [Compound No. 52, (1α,5α,6α)-6-N-(3-azabicyclo[3.1.0]hexyl-3-benzyl)-2-cyclohexyl-2-hydroxy-2-(4-phenoxyphenyl)acetamide]	> 1000	370	3090				
COc1ccc(C(O)(C(=O)NC2C3CN(CCC=C(C)C)CC32)C2CCCCC2)cc1 (stereo not drawn) [Compound No. 57, (1α,5α,6α)-6-N-(3-azabicyclo[3.1.0]hexyl-3-(4-methyl-3-pentenyl))-2-cyclohexyl-2-hydroxy-2-(4-methoxyphenyl)acetamide]	> 1000	240	1860				
O=C(N[C@H]1[C@@H]2CN(Cc3ccccc3)C[C@@H]21)C(O)(c1ccccc1)C1CCCC1 (stereo partly shown) [Compound No. 64]	3000		27.5				Ki (M2 muscarinic receptor; [8]): 2510 nM; Ki (M3 muscarinic receptor): 68 nM
CC(C)=CCCN1CC2C(C1)C2NC(=O)C(O)(c1ccccc1)C1CCCC1 (stereo not drawn) [Compound No. 65, (1α,5α,6α)-6-N-(3-azabicyclo[3.1.0]hexyl-3-(4-methyl-3-pentenyl))-2-cyclopentyl-2-hydroxy-2-phenyl acetamide]	1370	33	3.98	1370	4	29.5	Ki (M2 muscarinic receptor; [8]): 1350 nM; Ki (M3 muscarinic receptor; [5]): 33 nM; Receptor Binding Assay Selectivity (M3 muscarinic receptor; Table II, ratio M2 Ki / M3 Ki): 41.52
O=C(NC1C2CN(CCc3ccc4c(c3)OCO4)CC21)C(O)(c1ccccc1)C1CCCC1 (stereo not shown) [Compound No. 66]	182		3.24	237	5		Ki (M2 muscarinic receptor; [8]): 115 nM; Receptor Binding Assay Selectivity (M3 muscarinic receptor): 12.88; Ki (M3 muscarinic receptor; M3 Ki (nm)): 18.4 nM; Ki (M3 muscarinic receptor; M3 Pki): 15.5 nM; Ki (M3 muscarinic receptor; [9]): 18.4 nM
O=C(NC1C2CN(CCc3ccccc3)CC21)C(O)(c1ccccc1)C1CCCC1 (stereo not drawn) [Compound No. 67, (1α,5α,6α)-6-N-(3-azabicyclo[3.1.0]hexyl-3-(2-phenylethyl))-2-cyclopentyl-2-hydroxy-2-phenyl acetamide]	1420		38			38.9	
O=C(NC1C2CN(Cc3ccccc3)CC21)C(O)(c1ccccc1)C1CCCCCC1 (stereo not drawn) [Compound No. 72, (1α,5α,6α)-6-N-(3-azabicyclo[3.1.0]hexyl-3-benzyl)-2-cycloheptyl-2-hydroxy-2-phenyl acetamide]			66.1			20.9	Ki (M2 muscarinic receptor; M2 Ki (nm)): 1530 nM
CC(C)=CCCN1C[C@@H]2[C@H](C1)[C@H]2NC(=O)[C@](O)(c1ccccc1)C1CCCC1 [Compound No. 81, (2R)-(1α,5α,6α)-6-N-(3-azabicyclo[3.1.0]hexyl-3-(4-methyl-3-pentenyl))-2-cyclopentyl-2-hydroxy-2-phenyl acetamide]	564	12.4	11.2	564	7.95	11.5	Ki (M2 muscarinic receptor; [8]): 525 nM; Ki (M3 muscarinic receptor; [5]): 12.4 nM; Receptor Binding Assay Selectivity (M3 muscarinic receptor; Table II, ratio M2 Ki / M3 Ki): 45.48
O=C(N[C@H]1[C@@H]2CN(CCc3ccc4c(c3)OCO4)C[C@@H]21)[C@](O)(c1ccccc1)C1CCCC1 [Compound No. 82, (2R)-(1α,5α,6α)-6-N-(3-azabicyclo[3.1.0]hexyl-3-(3,4-methylenedioxyphenyl)ethyl)-2-cyclopentyl-2-hydroxy-2-phenyl acetamide]	646		0.759	646	9.12		Receptor Binding Assay Selectivity (M3 muscarinic receptor): 5; Ki (M3 muscarinic receptor; M3 Ki (nm)): 11.7 nM; Ki (M3 muscarinic receptor; [9]): 11.7 nM
